According to patent US10273248B2, “Glucose uptake inhibitors” (Kadmon Corporation LLC, priority 2015, dated 2019):

Test system: glycolysis in HT1080 cells
Assay: Glycolysis assay: oligomycin plus compound, cellular ATP by Cell Titer Glo
Format: cell-based
Conditions: Homo sapiens, HT-1080, 1 h, 10 μM oligomycin, one hour
Outline: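 Confluent HT1080 cells treated 1 h with compound plus 10 μM oligomycin to block mitochondrial ATP, so remaining ATP reflects glycolysis. Cellular ATP read by Cell Titer-Glo luminescence; IC50 derived from dose-response curves.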

Row | Compound | IC50 (class symbols) | IC50 (number printed instead of class)
1 | CC(C(=O)Nc1cccc(-c2nc(Nc3ccc(-c4cn[nH]c4)cc3)c3ncccc3n2)c1)N1CCOCC1 (stereo not shown) [Example 50, N-(3-(4-((4-(1H-pyrazol-4-yl)phenyl)amino)pyrido[3,2-d]pyrimidin-2-yl)phenyl)-2-morpholinopropanamide] | 0.501 to 1 µM | 
2 | O=C(CN1CCOCC1)Nc1cccc(-c2nc(Nc3ccc4[nH]ncc4c3)c3ccsc3n2)c1 [Example 18] | > 1 µM | 
3 | CC(C)N1CCc2nc(-c3cccc(OCC(=O)NCC(C)(C)C)c3)nc(Nc3ccc(-c4cn[nH]c4)cc3)c2C1 [Example 169, 2-(3-(4-((4-(1H-pyrazol-4-yl)phenyl)amino)-6-isopropyl-5,6,7,8-tetrahydropyrido[4,3-d]pyrimidin-2-yl)phenoxy)-N-neopentylacetamide] |  | 0.29 µM
4 | CN1CCN(CC(=O)Nc2cccc(-c3nc(Nc4ccc(-c5cn[nH]c5)cc4)c4occc4n3)c2)CC1 [Example 184, N-(3-(4-((4-(1H-pyrazol-4-yl)phenyl)amino)furo[3,2-d]pyrimidin-2-yl)phenyl)-2-(4-methylpiperazin-1-yl)acetamide] | 0.501 to 1 µM | 
5 | Cn1cnc2c(Nc3ccc(-c4cn[nH]c4)cc3)nc(-c3cccc(OCC(=O)NC4CC4)c3)nc21 [Example 22] | > 1 µM | 
6 | CC(C)NC(=O)COc1cc(F)cc(-c2nc(Nc3ccc(-c4cn[nH]c4)cc3)c3ncn(C)c3n2)c1 [Example 36] | > 1 µM | 
7 | O=C(COc1cccc(-c2nc(Nc3ccc(-c4cn[nH]c4)cc3)c3ccsc3n2)c1)N1CCOCC1 [Example 39, 2-(3-(4-((4-(1H-pyrazol-4-yl)phenyl)amino)thieno[2,3-d]pyrimidin-2-yl)phenoxy)-1-morpholinoethan-1-one] | > 1 µM | 
8 | CCC(CC)NC(=O)COc1cccc(-c2nc3c(c(Nc4ccc(-c5cn[nH]c5)cc4)n2)CN(C(C)C)CC3)c1 [Example 119, 2-(3-(4-((4-(1H-pyrazol-4-yl)phenyl)amino)-6-isopropyl-5,6,7,8-tetrahydropyrido[4,3-d]pyrimidin-2-yl)phenoxy)-N-(pentan-3-yl)acetamide] | 0.501 to 1 µM | 
9 | CC(C(=O)Nc1cccc(-c2nc(Nc3ccc(-c4cn[nH]c4)cc3)c3sccc3n2)c1)N1CCOCC1 (stereo not shown) [Example 173, N-(3-(4-((4-(1H-pyrazol-4-yl)phenyl)amino)thieno[3,2-d]pyrimidin-2-yl)phenyl)-2-morpholinopropanamide] | 0.251 to 0.5 µM | 
10 | O=C(CN1CCOCC1)Nc1cccc(-c2nc(Nc3ccc(-c4cn[nH]c4)cc3)c3occc3n2)c1 [Example 4, N-(3-(4-((4-(1H-pyrazol-4-yl)phenyl)amino)furo[3,2-d]pyrimidin-2-yl)phenyl)-2-morpholinoacetamide] | > 1 µM | 
11 | CC(Oc1cccc(-c2nc3c(c(Nc4ccc(-c5cn[nH]c5)cc4)n2)COC3)c1)C(=O)NC(C)(C)C (stereo not shown) [Example 188, 2-(3-(4-((4-(1H-pyrazol-4-yl)phenyl)amino)-5,7-dihydrofuro[3,4-d]pyrimidin-2-yl)phenoxy)-N-(tert-butyl)propanamide] | > 1 µM | 
12 | CC(Oc1cccc(-c2nc3c(c(Nc4ccc(-c5cn[nH]c5)cc4)n2)COC3)c1)C(=O)NCC(C)(C)C (stereo not shown) [Example 189, 2-(3-(4-((4-(1H-pyrazol-4-yl)phenyl)amino)-5,7-dihydrofuro[3,4-d]pyrimidin-2-yl)phenoxy)-N-neopentylpropanamide] | 0.251 to 0.5 µM | 
13 | CCCNC(=O)COc1cccc(-c2nc(Nc3ccc(-c4cn[nH]c4)cc3)c3ccsc3n2)c1 [Example 46, 2-(3-(4-((4-(1H-pyrazol-4-yl)phenyl)amino)thieno[2,3-d]pyrimidin-2-yl)phenoxy)-N-propylacetamide] | 0.501 to 1 µM | 
14 | O=C(COc1cccc(-c2nc(Nc3ccc(-c4cn[nH]c4)cc3)c3sccc3n2)c1)NC1CC1 [Example 20] | 0.501 to 1 µM | 
15 | CC(C)NC(=O)COc1cncc(-c2nc(Nc3ccc(-c4cn[nH]c4)cc3)c3ccsc3n2)c1 [Example 182, 2-((5-(4-((4-(1H-pyrazol-4-yl)phenyl)amino)thieno[2,3-d]pyrimidin-2-yl)pyridin-3-yl)oxy)-N-isopropylacetamide] | > 1 µM | 
16 | CC(C)NC(=O)COc1cccc(-c2nc(Nc3ccc4[nH]ncc4c3)c3sccc3n2)c1 [Example 15] | > 1 µM | 
17 | CC(C)NC(=O)C(C)Oc1cccc(-c2nc3c(c(Nc4ccc(-c5cn[nH]c5)cc4)n2)COC3)c1 (stereo not shown) [Example 185, 2-(3-(4-((4-(1H-pyrazol-4-yl)phenyl)amino)-5,7-dihydrofuro[3,4-d]pyrimidin-2-yl)phenoxy)-N-isopropylpropanamide] | > 1 µM | 
18 | CC(C)(C)NC(=O)COc1cc(-c2nc3c(c(Nc4ccc(-c5cn[nH]c5)cc4)n2)COC3)ccc1F [Example 96, 2-(5-(4-((4-(1H-pyrazol-4-yl)phenyl)amino)-5,7-dihydrofuro[3,4-d]pyrimidin-2-yl)-2-fluorophenoxy)-N-(tert-butyl)acetamide] | > 1 µM | 
19 | Cn1ncc2nc(-c3cccc(OCC(=O)NC4CCCC4)c3)nc(Nc3ccc(-c4cn[nH]c4)cc3)c21 [Example 60, 2-(3-(7-((4-(1H-pyrazol-4-yl)phenyl)amino)-1-methyl-1H-pyrazolo[4,3-d]pyrimidin-5-yl)phenoxy)-N-cyclopentylacetamide] | 0.501 to 1 µM | 
20 | CCC(CC)NC(=O)COc1cccc(-c2nc(Nc3ccc(-c4cn[nH]c4)cc3)c3sccc3n2)c1 [Example 181, 2-(3-(4-((4-(1H-pyrazol-4-yl)phenyl)amino)thieno[3,2-d]pyrimidin-2-yl)phenoxy)-N-(pentan-3-yl)acetamide] | 0.251 to 0.5 µM | 
21 | Cn1ncc2nc(-c3cccc(OCC(=O)NC4CCC4)c3)nc(Nc3ccc(-c4cn[nH]c4)cc3)c21 [Example 59, 2-(3-(7-((4-(1H-pyrazol-4-yl)phenyl)amino)-1-methyl-1H-pyrazolo[4,3-d]pyrimidin-5-yl)phenoxy)-N-cyclobutylacetamide] | > 1 µM | 

Continued, values first:

Row | IC50 (class symbols) | IC50 (number printed instead of class) | Compound
22 | 0.01 to 0.1 µM |  | O=C(COc1cccc(-c2nc(Nc3ccc(-c4cn[nH]c4)cc3)c3ccncc3n2)c1)NC1CCCC1 [Example 64, 2-(3-(4-((4-(1H-pyrazol-4-yl)phenyl)amino)pyrido[3,4-d]pyrimidin-2-yl)phenoxy)-N-cyclopentylacetamide]
23 | 0.01 to 0.1 µM |  | CC(C)NC(=O)COc1cccc(-c2nc(Nc3ccc(-c4cn[nH]c4)cc3)c3cnccc3n2)c1 [Example 134, 2-(3-(4-((4-(1H-pyrazol-4-yl)phenyl)amino)pyrido[4,3-d]pyrimidin-2-yl)phenoxy)-N-isopropylacetamide]
24 | 0.01 to 0.1 µM |  | CC(C)CNC(=O)COc1cccc(-c2nc3c(c(Nc4ccc(-c5cn[nH]c5)cc4)n2)COC3)c1 [Example 78, 2-(3-(4-((4-(1H-pyrazol-4-yl)phenyl)amino)-5,7-dihydrofuro[3,4-d]pyrimidin-2-yl)phenoxy)-N-isobutylacetamide]
25 | 0.01 to 0.1 µM |  | CC(=O)N1Cc2nc(-c3cccc(OCC(=O)NC4CCCC4)c3)nc(Nc3ccc(-c4cn[nH]c4)cc3)c2C1 [Example 143, 2-(3-(4-((4-(1H-pyrazol-4-yl)phenyl)amino)-6-acetyl-6,7-dihydro-5H-pyrrolo[3,4-d]pyrimidin-2-yl)phenoxy)-N-cyclopentylacetamide]
26 | 0.01 to 0.1 µM |  | Cc1ccc(C(=O)Nc2cccc(-c3nc4c(c(Nc5ccc(-c6cn[nH]c6)cc5)n3)COC4)c2)cn1 [Example 72, N-(3-(4-((4-(1H-pyrazol-4-yl)phenyl)amino)-5,7-dihydrofuro[3,4-d]pyrimidin-2-yl)phenyl)-6-methylnicotinamide]
27 | 0.01 to 0.1 µM |  | CC(C)(C)CNC(=O)COc1cccc(-c2nc3c(c(Nc4ccc(-c5cn[nH]c5)cc4)n2)COC3)c1 [Example 79, 2-(3-(4-((4-(1H-pyrazol-4-yl)phenyl)amino)-5,7-dihydrofuro[3,4-d]pyrimidin-2-yl)phenoxy)-N-neopentylacetamide]
28 | 0.01 to 0.1 µM |  | CC(C)(C)CNC(=O)COc1cccc(-c2nc3c(c(Nc4ccc(-c5cn[nH]c5)cc4)n2)COCC3)c1 [Example 105, 2-(3-(4-((4-(1H-pyrazol-4-yl)phenyl)amino)-7,8-dihydro-5H-pyrano[4,3-d]pyrimidin-2-yl)phenoxy)-N-neopentylacetamide]
29 | 0.101 to 0.25 µM |  | O=C(COc1cccc(-c2nc(Nc3ccc(-c4cn[nH]c4)cc3)c3ccsc3n2)c1)NC1CCC1 [Example 27]
30 | 0.01 to 0.1 µM |  | CC(C)NC(=O)COc1cccc(-c2nc3c(c(Nc4ccc(-c5cn[nH]c5)cc4)n2)CN(C(=O)C(C)C)CC3)c1 [Example 149, 2-(3-(4-((4-(1H-pyrazol-4-yl)phenyl)amino)-6-isobutyryl-5,6,7,8-tetrahydropyrido[4,3-d]pyrimidin-2-yl)phenoxy)-N-isopropylacetamide]
31 | 0.01 to 0.1 µM |  | CC(C)C(=O)N1CCc2nc(-c3cccc(OCC(=O)NC(C)(C)C)c3)nc(Nc3ccc(-c4cn[nH]c4)cc3)c2C1 [Example 151, 2-(3-(4-((4-(1H-pyrazol-4-yl)phenyl)amino)-6-isobutyryl-5,6,7,8-tetrahydropyrido[4,3-d]pyrimidin-2-yl)phenoxy)-N-(tert-butyl)acetamide]
32 | 0.01 to 0.1 µM |  | CC(=O)N1CCc2nc(-c3cccc(OCC(=O)NC4CCCC4)c3)nc(Nc3ccc(-c4cn[nH]c4)cc3)c2C1 [Example 145, 2-(3-(4-((4-(1H-pyrazol-4-yl)phenyl)amino)-6-acetyl-5,6,7,8-tetrahydropyrido[4,3-d]pyrimidin-2-yl)phenoxy)-N-cyclopentylacetamide]
33 | 0.01 to 0.1 µM |  | O=C(Nc1cccc(-c2nc3c(c(Nc4ccc(-c5cn[nH]c5)cc4)n2)COC3)c1)c1cccnc1 [Example 47, N-(3-(4-((4-(1H-pyrazol-4-yl)phenyl)amino)-5,7-dihydrofuro[3,4-d]pyrimidin-2-yl)phenyl)nicotinamide]
34 | 0.101 to 0.25 µM |  | CCN1CCc2nc(-c3cccc(OCC(=O)NC4CCCC4)c3)nc(Nc3ccc(-c4cn[nH]c4)cc3)c2C1 [Example 125, 2-(3-(4-((4-(1H-pyrazol-4-yl)phenyl)amino)-6-ethyl-5,6,7,8-tetrahydropyrido[4,3-d]pyrimidin-2-yl)phenoxy)-N-cyclopentylacetamide]
